Data reported in ChEMBL document CHEMBL1201862, “PubChem BioAssay data set” (2004).
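Interpolation was linear, between the two tested concentrations surrounding the appropriate level; five concentrations were tested over 48 hours in 96-well plates. The concentration for 50% growth inhibition is given as GI50.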 Activity calls are given as the source filed them. No stated cut-off is given here; in the data, active = GI50 up to about 1.1 µM and inactive = higher.

What was measured:
Assay in all cases: growth of human tumour cells (NCI), 48 h
[1] = test system: MOLT-4
[2] = test system: A498
[3] = test system: OVCAR-4
[4] = test system: HCT-15
[5] = test system: RXF 393
[6] = test system: SK-MEL-2
[7] = test system: SNB-75
[8] = test system: NCI-H460
[9] = test system: OVCAR-8
[10] = test system: NCI-H23
[11] = test system: M14
[12] = test system: Malme-3M
[13] = test system: KM12
[14] = test system: K562
[15] = test system: RPMI-8226
[16] = test system: HCT-116
[17] = test system: NCI-H226
[18] = test system: NCI-H522
[19] = test system: COLO 205

| SMILES | GI50 [1] | GI50 [2] | GI50 [3] | GI50 [4] | GI50 [5] | GI50 [6] | GI50 [7] | GI50 [8] | GI50 [9] | GI50 [10] | GI50 [11] | GI50 [12] | GI50 [13] | GI50 [14] | GI50 [15] | GI50 [16] | GI50 [17] | GI50 [18] | GI50 [19] |
| --- | --- | --- | --- | --- | --- | --- | --- | --- | --- | --- | --- | --- | --- | --- | --- | --- | --- | --- | --- |
| COc1cc(/C=N/c2nncs2)ccc1O | > 100 µM (inactive) | > 100 µM (inactive) | > 100 µM (inactive) | > 100 µM | > 100 µM (inactive) | > 100 µM (inactive) | > 100 µM (inactive) | > 100 µM (inactive) | > 100 µM (inactive) | > 100 µM (inactive) | > 100 µM (inactive) | > 100 µM (inactive) | > 100 µM (inactive) | > 100 µM (inactive) | > 100 µM (inactive) | > 100 µM (inactive) | > 100 µM (inactive) |  |  |
| COC(=O)C(CC=O)C(=O)C(=O)Nc1cccc(C(F)(F)F)c1 (configuration not stated) | > 100 µM (inactive) |  | > 100 µM (inactive) | > 100 µM | > 100 µM (inactive) | > 100 µM (inactive) |  | > 100 µM (inactive) | > 100 µM (inactive) | > 100 µM (inactive) | > 100 µM (inactive) | > 100 µM (inactive) | > 100 µM (inactive) | > 100 µM (inactive) | > 100 µM (inactive) | > 100 µM (inactive) | > 100 µM (inactive) | > 100 µM (inactive) |  |
| O=C(O)CCSC(=O)Nc1ccccc1 | > 100 µM (inactive) | > 100 µM (inactive) | > 100 µM (inactive) | > 100 µM | > 100 µM (inactive) | > 100 µM (inactive) |  | > 100 µM (inactive) | > 100 µM (inactive) | > 100 µM (inactive) | > 100 µM (inactive) |  | > 100 µM (inactive) | > 100 µM (inactive) | > 100 µM (inactive) | > 100 µM (inactive) | > 100 µM (inactive) |  | > 100 µM (inactive) |
| Cc1ccc(-c2nc3ccccc3c(=O)n2NCC2(O)OCC(O)C(O)C2O)cc1 (configuration not stated) | > 100 µM (inactive) | > 100 µM (inactive) | > 100 µM (inactive) | > 100 µM | > 100 µM (inactive) | > 100 µM (inactive) | > 100 µM (inactive) | > 100 µM (inactive) | > 100 µM (inactive) | > 100 µM (inactive) | > 100 µM (inactive) | > 100 µM (inactive) | > 100 µM (inactive) | > 100 µM (inactive) | > 100 µM (inactive) | > 100 µM (inactive) |  | > 100 µM (inactive) | > 100 µM (inactive) |
| Cc1cc2c(=O)cc(-c3ccc(C(=O)O)cc3)oc2c(C(N)=O)c1C | > 100 µM (inactive) | > 100 µM (inactive) | > 100 µM (inactive) | > 100 µM |  | > 100 µM (inactive) | 28.9 µM (inactive) | > 100 µM (inactive) | > 100 µM (inactive) | > 100 µM (inactive) | > 100 µM (inactive) | > 100 µM (inactive) | > 100 µM (inactive) | > 100 µM (inactive) | > 100 µM (inactive) | > 100 µM (inactive) |  | > 100 µM (inactive) | > 100 µM (inactive) |
| CC1CC(=O)Nc2ccc(Cl)cc2N1C(=O)CN1CCC(CCCCN(C)C)CC1 (configuration not stated) | > 100 µM (inactive) | > 100 µM (inactive) | > 100 µM (inactive) | > 100 µM |  |  |  | > 100 µM (inactive) | > 100 µM (inactive) | > 100 µM (inactive) | > 100 µM (inactive) | > 100 µM (inactive) |  | 80 µM (inactive) | > 100 µM (inactive) | > 100 µM (inactive) | > 100 µM (inactive) |  | > 100 µM (inactive) |
| C[C@]12CC[C@H](O)CC1=CC[C@@H]1C2CC[C@]2(C)NC(=O)C(C#N)CC12 (some centres not stated) | > 100 µM (inactive) | > 100 µM (inactive) | > 100 µM (inactive) | 37.8 µM | 55.1 µM (inactive) | > 100 µM (inactive) | 51.4 µM (inactive) | > 100 µM (inactive) | > 100 µM (inactive) | > 100 µM (inactive) | > 100 µM (inactive) | > 100 µM (inactive) | > 100 µM (inactive) | 6.89 µM (inactive) | > 100 µM (inactive) | > 100 µM (inactive) | > 100 µM (inactive) |  |  |
| O=S1(=O)OCCOS(=O)(=O)C1I | 75.3 µM (inactive) | > 100 µM (inactive) | > 100 µM (inactive) |  |  | > 100 µM (inactive) | > 100 µM (inactive) |  | > 100 µM (inactive) | > 100 µM (inactive) | > 100 µM (inactive) | > 100 µM (inactive) | > 100 µM (inactive) | > 100 µM (inactive) | > 100 µM (inactive) | > 100 µM (inactive) | 28.6 µM (inactive) | > 100 µM (inactive) | > 100 µM (inactive) |
| Cc1cc(O)c2c(c1)C(O)(c1ccc3c(c1O)C(=O)c1c(O)cc(C)cc1C3(O)C1OC(CO)C(O)C(O)C1O)c1cccc(O)c1C2=O (configuration not stated) | 10.7 µM (inactive) | 13.6 µM (inactive) | 12.9 µM (inactive) | 12.8 µM | 12.1 µM (inactive) |  | 14.1 µM (inactive) | 14 µM (inactive) | 13.4 µM (inactive) | 15.2 µM (inactive) | 14.4 µM (inactive) | 11.7 µM (inactive) | 11.5 µM (inactive) | 5.15 µM (inactive) | 16 µM (inactive) | 11.9 µM (inactive) |  |  |  |
| Cc1cccc(C)c1NC(=O)C(=O)C1C(=O)NC(=O)NC1=O | > 100 µM (inactive) | > 100 µM (inactive) | > 100 µM (inactive) | > 100 µM | > 100 µM (inactive) |  |  | > 100 µM (inactive) | > 100 µM (inactive) | > 100 µM (inactive) | > 100 µM (inactive) | > 100 µM (inactive) | > 100 µM (inactive) | > 100 µM (inactive) | > 100 µM (inactive) | > 100 µM (inactive) | > 100 µM (inactive) | > 100 µM (inactive) | > 100 µM (inactive) |
| CN(C)c1ccc(/C=C/C(=O)c2ccccc2)cc1Br | 23 µM (inactive) | > 100 µM (inactive) | 15.5 µM (inactive) | 22.9 µM |  | 18.4 µM (inactive) | 16.6 µM (inactive) | 35.7 µM (inactive) | 23.2 µM (inactive) | 16.5 µM (inactive) | 13.2 µM (inactive) | 17.6 µM (inactive) | 15.8 µM (inactive) | 20.6 µM (inactive) | 13.2 µM (inactive) |  |  | 15 µM (inactive) | 18.3 µM (inactive) |
| COc1cc(/C=C(\C#N)C(=O)c2ccccc2)cc(OC)c1OC | > 100 µM (inactive) |  | > 100 µM (inactive) | > 100 µM | 29.6 µM (inactive) | > 100 µM (inactive) | 38.1 µM (inactive) | > 100 µM (inactive) | > 100 µM (inactive) | > 100 µM (inactive) | > 100 µM (inactive) | > 100 µM (inactive) | > 100 µM (inactive) | > 100 µM (inactive) | > 100 µM (inactive) | > 100 µM (inactive) | > 100 µM (inactive) | > 100 µM (inactive) | > 100 µM (inactive) |
| CCC(=O)N1C(=O)OCC1C(C)C (configuration not stated) | > 100 µM (inactive) | > 100 µM (inactive) | > 100 µM (inactive) | > 100 µM | > 100 µM (inactive) | > 100 µM (inactive) | > 100 µM (inactive) | > 100 µM (inactive) | > 100 µM (inactive) | > 100 µM (inactive) | > 100 µM (inactive) | > 100 µM (inactive) | > 100 µM (inactive) | > 100 µM (inactive) | > 100 µM (inactive) | > 100 µM (inactive) |  |  | > 100 µM (inactive) |
| Clc1ccc(/C=C/c2csnn2)cc1 | > 100 µM (inactive) | > 100 µM (inactive) | > 100 µM (inactive) | > 100 µM | > 100 µM (inactive) | > 100 µM (inactive) | > 100 µM (inactive) | > 100 µM (inactive) | > 100 µM (inactive) | > 100 µM (inactive) | > 100 µM (inactive) | > 100 µM (inactive) | > 100 µM (inactive) | > 100 µM (inactive) |  | > 100 µM (inactive) | > 100 µM (inactive) | > 100 µM (inactive) | > 100 µM (inactive) |
| COc1cc2c(cc1O)[C@H](Cc1ccc(Oc3cc(C[C@H]4c5cc(OC)c(OC)cc5CCN4C)ccc3OC)cc1)NCC2 | 3.25 µM (inactive) | 13.7 µM (inactive) | 12.7 µM (inactive) | 7.98 µM | 3.77 µM (inactive) | 17 µM (inactive) | 6.56 µM (inactive) | 14.3 µM (inactive) | 14.5 µM (inactive) | 11.9 µM (inactive) | 1.81 µM (inactive) | 22.1 µM (inactive) | 12.9 µM (inactive) | 2.21 µM (inactive) | 12.9 µM (inactive) | 8.11 µM (inactive) | 12.7 µM (inactive) |  | 17.9 µM (inactive) |
| CN1OC2OC(=O)OC2[C@H]1[C@H]1O[C@H](c2ccccc2)OC1(C)c1cc(OC(=O)c2ccccc2)ccc1OC(=O)c1ccccc1 (some centres not stated) | > 50 µM (inactive) |  | > 50 µM (inactive) | > 50 µM | > 50 µM (inactive) | > 50 µM (inactive) | > 50 µM (inactive) | > 50 µM (inactive) | > 50 µM (inactive) | > 50 µM (inactive) | > 50 µM (inactive) | > 50 µM (inactive) | > 50 µM (inactive) | > 50 µM (inactive) | > 50 µM (inactive) | > 50 µM (inactive) | > 50 µM (inactive) | > 50 µM (inactive) | > 50 µM (inactive) |
| c1cc2c(cc1NC1=NCCO1)CCC2 | > 10 µM (inactive) |  | > 10 µM (inactive) | > 10 µM | > 10 µM (inactive) | > 10 µM (inactive) | 9.1 µM (inactive) |  | > 10 µM (inactive) | > 10 µM (inactive) |  | > 10 µM (inactive) | > 10 µM (inactive) | 9.75 µM (inactive) | > 10 µM (inactive) | 4.49 µM (inactive) |  |  | > 10 µM (inactive) |
